Data on one compound can be found in ChEMBL document CHEMBL1201862, “PubChem BioAssay data set” (2004).

Assay [1] can be described thus: NIH-3T3 fibroblast cytotoxicity, dose response, cytotoxicity control, cell-based, fluorescence, Alamar Blue, secondary assay (AID 2327).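 Also: NIH-3T3 mouse fibroblasts cultured with fluconazole at 8 µg/mL.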 It counts as functional.
The target of assay [2] is T1, Zinc finger protein mex-5 (Caenorhabditis elegans, UniProt Q9XUB2).
T1 sequence (Q9XUB2 whole entry): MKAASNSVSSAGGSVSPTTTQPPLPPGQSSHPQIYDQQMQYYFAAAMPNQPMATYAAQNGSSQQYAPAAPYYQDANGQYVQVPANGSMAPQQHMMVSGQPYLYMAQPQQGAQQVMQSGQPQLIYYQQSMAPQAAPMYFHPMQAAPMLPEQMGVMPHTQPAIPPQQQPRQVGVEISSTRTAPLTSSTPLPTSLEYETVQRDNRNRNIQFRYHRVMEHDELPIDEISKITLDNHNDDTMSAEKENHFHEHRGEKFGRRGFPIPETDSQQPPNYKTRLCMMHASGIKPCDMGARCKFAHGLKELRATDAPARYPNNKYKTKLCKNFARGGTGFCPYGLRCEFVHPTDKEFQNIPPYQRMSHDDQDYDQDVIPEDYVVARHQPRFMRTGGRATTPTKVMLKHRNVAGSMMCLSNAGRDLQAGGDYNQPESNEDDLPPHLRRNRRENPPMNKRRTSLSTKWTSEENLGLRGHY
Put plainly: MEX-5/TCR-2 RNA interaction inhibitors, dose response, biochemical, C. elegans, fluorescence polarization (AID 1960). On the technique in general: In fluorescence polarisation assays a small probe gives low polarisation when free and higher when bound to something large.

Assay [3] in a line: cytotoxicity toward DRD oncogenic fibroblasts, dose response, cell-based, non-viral oncogenic, luminescence (AID 1934). It counts as functional. The settings on record: Homo sapiens.
The next assay relates to Streptococcus. As to the kind of experiment: Group A Streptococcus viability loss, dose response, counter-screen for streptokinase expression inhibitor project, luminescence, BacTiterGlo (AID 1915).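 Also: potency for reduction of bacterial viability or growth.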 It counts as functional, organism-based. In general terms: Counterscreens check selectivity or assay interference.
Another assay has as its system Vero. Put plainly: cells. It counts as functional. The settings on record: Chlorocebus sabaeus.
The target of assay [4] is T2, RNA-binding protein pos-1 (Caenorhabditis elegans, UniProt G5EF15).
T2 sequence (G5EF15 whole entry): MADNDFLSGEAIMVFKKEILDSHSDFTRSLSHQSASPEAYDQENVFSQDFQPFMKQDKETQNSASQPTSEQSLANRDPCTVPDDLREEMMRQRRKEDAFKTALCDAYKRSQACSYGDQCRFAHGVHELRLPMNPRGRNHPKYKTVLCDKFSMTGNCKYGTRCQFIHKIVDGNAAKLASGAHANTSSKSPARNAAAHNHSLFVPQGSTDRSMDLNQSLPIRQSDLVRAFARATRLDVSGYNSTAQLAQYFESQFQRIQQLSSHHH
Put plainly: inhibitors of POS-1/mex-3 RNA binding, dose response, biochemical, fluorescence polarization (AID 1964).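 Also: purified POS-1 fused to maltose binding protein made in E. coli; potency of compounds blocking POS-1 binding to fluorescent RNA.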

Assay [5] deals with BJ. Put plainly: cytotoxicity toward Ras-transformed BJeLR fibroblasts, dose response, cell-based, alamar blue fluorescence, cherrypicked samples (AID 2631).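 Also: confirmatory dose-response assay in RAS-dependent BJ fibroblasts engineered with TERT, LT and ST, with cytotoxicity read by fluorescence.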 It counts as functional. The settings on record: Homo sapiens. On the technique in general: Resazurin is reduced to fluorescent resorufin, in cell work by metabolically active cells.
Assay [6] relates to BJ. As to the kind of experiment: cytotoxicity toward BJ-TERT-LT-ST fibroblasts, dose response, cell-based, RAS-independent, luminescence (AID 1935).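 Also: BJ fibroblasts immortalized with TERT plus LT and ST oncogenes.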 It counts as functional. The settings on record: Homo sapiens.
A further assay deals with T3, Streptokinase A (Streptococcus pyogenes serotype M1, UniProt P10520).
T3 sequence (P10520 whole entry): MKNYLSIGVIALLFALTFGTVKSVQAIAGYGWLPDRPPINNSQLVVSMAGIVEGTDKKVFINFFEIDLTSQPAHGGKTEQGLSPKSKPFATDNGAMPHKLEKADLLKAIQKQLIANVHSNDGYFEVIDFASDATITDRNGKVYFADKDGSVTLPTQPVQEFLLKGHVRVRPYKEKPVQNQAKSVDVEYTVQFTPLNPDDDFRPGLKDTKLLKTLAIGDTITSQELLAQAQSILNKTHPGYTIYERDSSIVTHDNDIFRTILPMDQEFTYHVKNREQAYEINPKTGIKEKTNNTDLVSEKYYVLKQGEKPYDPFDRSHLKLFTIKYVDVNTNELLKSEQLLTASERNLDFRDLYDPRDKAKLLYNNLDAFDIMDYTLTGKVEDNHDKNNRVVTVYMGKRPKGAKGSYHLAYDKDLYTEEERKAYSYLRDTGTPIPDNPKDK
As to the kind of experiment: S. pyogenes streptokinase expression inhibitors, potency, dose response, plasminogen activation absorbance, OD405 (AID 1914).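 Also: secreted streptokinase activity via plasminogen activation per viability signal from cell pellet.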 It counts as functional, Streptococcus pyogenes M1 GAS.

Assay [7] has as its system Streptococcus sp. 'group A'. As to the kind of experiment: growth inhibition of control SK(-) GAS strain, dose response, counter-screen for streptokinase expression inhibitor project, luminescence, kanamycin, BacTiterGlo, confirmation (AID 1900). It is filed as functional, organism-based.
Assay [8] has as its system BJ. Put plainly: cells. It is filed as functional, cell-based. Particulars: Homo sapiens.
The test system of assay [9] is BJ. Put plainly: cytotoxicity toward BJ-TERT fibroblasts, dose response, cell-based, RAS-independent, luminescence (AID 1933). It counts as functional. The settings on record: Homo sapiens.
Assay [10] can be described thus: C. albicans growth with fluconazole, confirmation, fluorescence, retest (AID 2467). It is filed as functional, cell-based.
Assay [11] concerns the target Photoreceptor-specific nuclear receptor (Homo sapiens, UniProt Q9Y5X4). It is filed as functional, cell-based.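 Also: CHO-S cells with Gal4-NCOR and VP16-NR2E3 two-hybrid luciferase reporter.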

The source made the active and inactive calls. Rule as the data show it, for most assays here: actives have a measured EC50 and inactives only a lower limit.

Sequence of Photoreceptor-specific nuclear receptor (Q9Y5X4 whole entry, the tested form may be a part): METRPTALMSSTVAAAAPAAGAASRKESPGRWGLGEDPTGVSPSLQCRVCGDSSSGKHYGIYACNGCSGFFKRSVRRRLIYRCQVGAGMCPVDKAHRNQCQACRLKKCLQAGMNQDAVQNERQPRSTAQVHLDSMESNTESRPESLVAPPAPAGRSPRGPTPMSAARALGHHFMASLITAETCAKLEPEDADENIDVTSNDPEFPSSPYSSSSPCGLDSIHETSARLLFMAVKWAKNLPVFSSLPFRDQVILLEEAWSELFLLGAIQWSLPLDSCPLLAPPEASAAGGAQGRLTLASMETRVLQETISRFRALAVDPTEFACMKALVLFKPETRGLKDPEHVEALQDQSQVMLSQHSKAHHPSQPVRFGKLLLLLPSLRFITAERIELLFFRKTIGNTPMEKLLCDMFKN

Turning to `O=C(/C=C/c1ccc([N+](=O)[O-])o1)NNC(=O)c1ccc(F)cc1`, the EC50 (usually the concentration giving half of the maximal effect) in [1] was 4.1 µM (inconclusive); in assay [2] it was 24.8 µM (active); in [3], 7.26 µM (active); with Streptococcus, 10.3 µM (active); in [4], > 300 µM (not active); in the assay on BJ [5], 2.93 µM (active). For the same compound, the EC50 is > 150 µM (inconclusive) with BJ [6]; 13.9 µM (active) on Streptokinase A; 2.58 µM (active) in assay [7]; 4.1 µM (inconclusive) in the assay on BJ [8]; 7.04 µM (inconclusive) in the assay on BJ [9]; 1.24 µM (active) in assay [10]. Moreover, the CC50 (as a rule, the concentration giving 50% cytotoxicity) in the assay on Vero is 14.5 µM (active). In assay [11], the IC50 – broadly, the concentration needed to halve the response being measured – is 1.8 µM (active).
